Measurements as given in ChEMBL document CHEMBL1147486 (Bioorg Med Chem Lett, 2004).

What was measured:
[1] = system: Rattus norvegicus; test: Hypolipidemic action at 500 uM/kg was determined as reduction in low density lipoprotein in rat plasma; type: functional
[2] = system: Rattus norvegicus; test: Hypolipidemic action at 500 uM/kg was determined as reduction in triglycerides in rat plasma; type: functional
[3] = system: Rattus norvegicus; test: Body weight change after once daily administration for 4 days in rats was determined; type: functional
[4] = species on record: Rattus norvegicus; test: In vitro ability to inhibit the peroxidation of rat hepatic microsomal lipids at 1 mM concentration; type: functional; settings: Liver
[5] = species on record: Rattus norvegicus; test: In vitro ability to inhibit the peroxidation of rat hepatic microsomal lipids; type: functional; settings: Liver
[6] = system: Rattus norvegicus; test: Mortality caused by the compound in rats after administration at 1350 uM/kg for 4 days; type: functional
[7] = system: Rattus norvegicus; test: Hypolipidemic action at 500 uM/kg was determined as reduction in total cholesterol in rat plasma
[8] = system: Rattus norvegicus; test: Ulcerogenic activity administered once daily at 1350 uM/kg for 4 days was determined as no of animals showing perforating ulcers; type: functional
[9] = system: Mus musculus; test: Antiinflammatory activity, administered ip at 150 uM/kg dose was determined against carrageenan-induced mice paw edema model; type: functional; settings: at 150 µmol/kg
[10] = system: Rattus norvegicus; test: Ulcerogenic activity administered once daily at 84 uM/kg for 4 days was determined as no of animals showing perforating ulcers; type: functional
[11] = system: Rattus norvegicus; test: Mortality caused by the compound in rats after administration at 84 uM/kg for 4 days; type: functional
[12] = system: Rattus norvegicus; test: Body weight change after once daily administration at 84 uM/kg for 4 days in rats was determined; type: functional
[13] = system: Rattus norvegicus; test: Body weight change after once daily administration at 760 uM/kg for 4 days in rats was determined; type: functional
[14] = system: Rattus norvegicus; test: Mortality caused by the compound in rats after administration at 760 uM/kg for 4 days; type: functional
[15] = system: Rattus norvegicus; test: Ulcerogenic activity administered once daily at 760 uM/kg for 4 days was determined as no of animals showing perforating ulcers; type: functional
[16] = system: Rattus norvegicus; test: Mortality caused by the compound in rats after administration at 240 uM/kg for 4 days; type: functional
[17] = system: Rattus norvegicus; test: Ulcerogenic activity administered once daily at 240 uM/kg for 4 days was determined as no of animals showing perforating ulcers; type: functional
[18] = system: Rattus norvegicus; test: Body weight change after once daily administration at 240 uM/kg for 4 days in rats was determined; type: functional
[19] = system: Rattus norvegicus; test: Mortality caused by the compound in rats after administration at 1600 uM/kg for 4 days; type: functional
[20] = system: Rattus norvegicus; test: Hypolipidemic action at 250 uM/kg was determined as reduction in triglycerides in rat plasma; type: functional
[21] = system: Rattus norvegicus; test: Hypolipidemic action at 250 uM/kg was determined as reduction in low density lipoprotein in rat plasma; type: functional
[22] = system: Rattus norvegicus; test: Hypolipidemic action at 250 uM/kg was determined as reduction in total cholesterol in rat plasma; type: functional
[23] = system: Rattus norvegicus; test: Ulcerogenic activity administered once daily at 1600 uM/kg for 4 days was determined as no of animals showing perforating ulcers; type: functional
[24] = system: Rattus norvegicus; test: Body weight change after once daily administration at 1600 uM/kg for 4 days in rats was determined; type: functional
[25] = system: Rattus norvegicus; test: Hypolipidemic action at 300 uM/kg was determined as reduction in triglycerides in rat plasma; type: functional
[26] = system: Rattus norvegicus; test: Hypolipidemic action at 300 uM/kg was determined as reduction in total cholesterol in rat plasma; type: functional
[27] = system: Rattus norvegicus; test: Hypolipidemic action at 300 uM/kg was determined as reduction in low density lipoprotein in rat plasma; type: functional
[28] = system: Rattus norvegicus; test: Body weight change after once daily administration at 200 uM/kg for 4 days in rats was determined; type: functional
[29] = system: Rattus norvegicus; test: Ulcerogenic activity administered once daily at 200 uM/kg for 4 days was determined as no of animals showing perforating ulcers; type: functional
[30] = system: Rattus norvegicus; test: Mortality caused by the compound in rats after administration at 200 uM/kg for 4 days; type: functional
[31] = system: Rattus norvegicus; test: Ulcerogenic activity administered once daily for 4 days at 84 uM/kg was determined as no of animals showing perforating ulcers; type: functional
[32] = system: Rattus norvegicus; test: Body weight change after once daily administration for 4 days at 84 uM/kg in rats was determined; type: functional
[33] = system: Rattus norvegicus; test: Ulcerogenic activity administered once daily at 1200 uM/kg for 4 days was determined as no of animals showing perforating ulcers; type: functional
[34] = system: Rattus norvegicus; test: Mortality caused by the compound in rats after administration at 1200 uM/kg for 4 days; type: functional

SMILES | Decrease [1] [%] | Decrease [2] [%] | Decrease [7] [%] | Edema inhibition [9] [%] | Paw weight increase [9] [%] | other results
CCOC(=O)[C@H](CS)NC(=O)C(C)c1ccc2cc(OC)ccc2c1 (stereo not given in full) | 46.8 | 29.6 | 33.8 | 37.1 | 35.6 | Body weight change [3]: 9.2 g (100g of body weight)-1; inhibition [4]: 100%; IC50 [5]: 28 µM; Mortality [6]: 0%; Ulcerogenic activity [8]: 0%
COc1ccc2c(c1)c(CC(=O)O)c(C)n2C(=O)c1ccc(Cl)cc1 [INDOMETHACIN] | 72.2 | 78.6 | 74.4 | 41.6 | 22.5 | Ulcerogenic activity [10]: 80%; Mortality [11]: 50%; Body weight change [12]: -13 g (100g of body weight)-1
CCOC(=O)[C@@H](N)CS |  |  |  | 24.9 | 29.2 | 
COc1ccc2cc([C@H](C)C(=O)O)ccc2c1 [NAPROXEN] | 43.5 | 25.5 | 53 | 11 | 50.4 | Body weight change [3]: -15.8 g (100g of body weight)-1; Mortality [6]: 50%; Ulcerogenic activity [8]: 100%
Cc1c(Cl)cccc1Nc1ccccc1C(=O)O [TOLFENAMIC ACID] |  |  |  | 24 | 27.6 | Body weight change [13]: -5.3 g (100g of body weight)-1; Mortality [14]: 50%; Ulcerogenic activity [15]: 50%
CCOC(=O)[C@H](CS)NC(=O)Cc1ccccc1Nc1c(Cl)cccc1Cl | 92.6 | 31.6 | 54.7 | 59.3 | 11.8 | Mortality [16]: 0%; Ulcerogenic activity [17]: 0%; inhibition [4]: 100%; IC50 [5]: 27 µM; Body weight change [18]: 3.1 g (100g of body weight)-1
CCOC(=O)[C@H](CS)NC(=O)C(C)c1ccc(CC(C)C)cc1 (stereo not given in full) |  |  |  | 61.2 | 19.1 | Mortality [19]: 0%; Decrease [20]: 27.5%; Body weight change [3]: 1 g (100g of body weight)-1; Decrease [21]: 68.7%; inhibition [4]: 100%; IC50 [5]: 38 µM; Decrease [22]: 48.1%; Ulcerogenic activity [23]: 0%
CC(C)Cc1ccc(C(C)C(=O)O)cc1 (stereo not given) [IBUPROFEN] |  |  |  | 35.6 | 31.7 | Body weight change [24]: -12.7 g (100g of body weight)-1; Decrease [25]: 41.6%; Decrease [26]: 38.2%; Mortality [19]: 50%; Ulcerogenic activity [23]: 88%; Decrease [27]: 31.6%
CCOC(=O)[C@@H](N)CS.COc1ccc2c(c1)c(CC(=O)O)c(C)n2C(=O)c1ccc(Cl)cc1 |  |  |  | 32.8 | 25.8 | 
CC(C(=O)O)c1cccc(C(=O)c2ccccc2)c1.CCOC(=O)[C@@H](N)CS (stereo not given) |  |  |  | 39 | 41.6 | 
CCOC(=O)[C@@H](N)CS.Cc1c(Cl)cccc1Nc1ccccc1C(=O)O |  |  |  | 25.9 | 25.5 | 
CCOC(=O)[C@@H](N)CS.O=C(O)c1ccccc1Nc1cccc(C(F)(F)F)c1 |  |  |  | 9 | 61.9 | 
CCOC(=O)[C@@H](N)CS.COc1ccc2cc(C(C)C(=O)O)ccc2c1 (stereo not given) |  |  |  | 38.1 | 30.1 | 
CCOC(=O)[C@@H](N)CS.O=C([O-])Cc1ccccc1Nc1c(Cl)cccc1Cl.[Na+] |  |  |  | 27.7 | 28.2 | 
CCOC(=O)[C@H](CS)NC(=O)C(C)c1cccc(C(=O)c2ccccc2)c1 (stereo not given in full) |  |  |  | 29 | 48 | Body weight change [28]: 0.3 g (100g of body weight)-1; Ulcerogenic activity [29]: 0%; inhibition [4]: 100%; IC50 [5]: 650 µM; Mortality [30]: 0%
CCOC(=O)[C@H](CS)NC(=O)Cc1c(C)n(C(=O)c2ccc(Cl)cc2)c2ccc(OC)cc12 | 60.5 | 19.8 | 37 | 63.3 | 14.1 | Ulcerogenic activity [31]: 0%; Body weight change [32]: 3.4 g (100g of body weight)-1; inhibition [4]: 100%; IC50 [5]: 51 µM; Mortality [11]: 0%
CC(C(=O)O)c1cccc(C(=O)c2ccccc2)c1 (stereo not given) [KETOPROFEN] |  |  |  |  | 35.9 | Body weight change [28]: -18.9 g (100g of body weight)-1; Ulcerogenic activity [29]: 83%; Mortality [30]: 50%
O=C([O-])Cc1ccccc1Nc1c(Cl)cccc1Cl.[Na+] [DICLOFENAC SODIUM] | 86.3 | 96.1 | 87.4 | 37.1 | 24.5 | Ulcerogenic activity [17]: 75%
O=C(O)c1ccccc1Nc1cccc(C(F)(F)F)c1 [FLUFENAMIC ACID] |  |  |  | 19 | 55.4 | Body weight change [3]: -9.2 g (100g of body weight)-1; Ulcerogenic activity [33]: 50%; Mortality [34]: 50%
